Test results as given in BindingDB's records for patent US10544130 (Merck Sharp & Dohme Corp., 2020).

Legend:
[1] = molecular target: Metallo-beta-lactamase VIM-1 (Pseudomonas aeruginosa, UniProt A0A0F7KYQ8)
[2] = molecular target: Metallo-beta-lactamase type 2 (Klebsiella pneumoniae, UniProt C7C422)
Sequence of Metallo-beta-lactamase type 2 (C7C422 whole entry): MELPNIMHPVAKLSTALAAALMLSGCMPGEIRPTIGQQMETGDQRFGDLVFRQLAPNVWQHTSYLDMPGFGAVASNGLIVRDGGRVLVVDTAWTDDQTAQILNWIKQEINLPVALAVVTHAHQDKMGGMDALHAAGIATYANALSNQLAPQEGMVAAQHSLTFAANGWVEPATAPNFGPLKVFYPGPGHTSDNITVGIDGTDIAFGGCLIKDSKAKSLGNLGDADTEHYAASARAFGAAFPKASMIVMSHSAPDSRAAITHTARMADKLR

Row | Structure (SMILES) | IC50 [1] | IC50 [2]
1 | COc1ccc(CN(Cc2ccc(OC)cc2)S(=O)(=O)c2c(S(=O)(=O)NC[C@@H](CNC(=O)OC(C)(C)C)NC(=O)OC(C)(C)C)ccc(I)c2-c2nnn(Cc3ccc(OC)cc3)n2)cc1 [US10544130, Example 81] | 0.135 nM | 
2 | C[N+]1(CCN)CC[C@@H](NS(=O)(=O)c2ccc(-c3cccc4[nH]c(N)nc34)c(-c3nn[nH]n3)c2S(N)(=O)=O)C1 (stereo not given in full) [US10544130, Example 248] |  | 0.011 nM
3 | COc1ccc(CN(Cc2ccc(OC)cc2)S(=O)(=O)c2c(S(=O)(=O)N[C@@H]3CCN(C(=O)OC(C)(C)C)C3)ccc(I)c2-c2nnn(Cc3ccc(OC)cc3)n2)cc1 [US10544130, Example 72] |  | 0.02 nM
4 | COc1ccc(CN(Cc2ccc(OC)cc2)S(=O)(=O)c2c(S(=O)(=O)N[C@H]3CN(C(=O)OC(C)(C)C)C[C@@H]3NC(=O)OC(C)(C)C)ccc(I)c2-c2nnn(Cc3ccc(OC)cc3)n2)cc1 [US10544130, Example 82] |  | 0.049 nM
5 | OB(O)c1cccc2[nH]cnc12 [US10544130, Example 12] | 0.102 nM | 
6 | Nc1ncccc1-c1ccc(S(=O)(=O)N[C@H]2C[C@@H]2N)c(S(N)(=O)=O)c1-c1nn[nH]n1 [US10544130, Example 216] | 0.269 nM | 0.237 nM
7 | COc1ccc(CN(Cc2ccc(OC)cc2)S(=O)(=O)c2c(S(=O)(=O)NC[C@H](CO)NC(=O)OCc3ccccc3)ccc(I)c2-c2nnn(Cc3ccc(OC)cc3)n2)cc1 [US10544130, Example 80] | 0.158 nM | 
8 | N#Cc1cccc(B(O)O)c1N [US10544130, Example 11] | 0.05 nM | 0.019 nM
